{
  "source": "patent US20060135472A1",
  "about": "“Use of water-soluble polymers to improve stability of diiodomethyl-para-tolylsulfone in complex matrices” (priority 2004, published 2006)",
  "key": {"fungi": {"test_system": "fungi", "settings": "wide variety of fungi; cited from earlier work"}, "[1]": {"settings": "cited from earlier work"}, "[2]": {"assay": "Stability of DITS in a generic shampoo matrix after storage at 40° C. for 8 weeks, by HPLC", "type": "physicochemical", "method": "All analytical data were obtained by high performance liquid chromatography (“HPLC”) analysis for content for diiodomethyl-p-tolylsulfone (DITS) and monoiodomethyl-p-tolylsulfone (MITS). Analysis was done on an Agilent HP system using a Phenomenex Bondclone 10 micron C18 reverse phase column (300×3.9 mm, 10 microns) at a flow rate of 2 mL/min, isocratic 55% acetonitrile in water for 17 min. Under these conditions DITS elutes at 3.9-4.3 min and MITS elutes at 2.9-3.3 min, depending on the shampoo matrix. […]\nTo a 250 mL glass jar were added 24.81 g water and 0.2526 g SL 400. The mixture was stirred vigorously for 1.5 h. Then, 1.0302 g milled AMICAL™ diiodomethyl-para-tolylsulfone was added, and the mixture was stirred for an additional 1.5 hours. After that, the premix was heated to 68° C. in a hot water bath, and a pre-blended mixture of Standapol* EA-3 (32.98 g), Standapol* A (11.16 g), and LAA (16.70 g) was added with agitation. 12.9 g of DI water was added next, and stirring was continued in the hot water bath. After 10 min, […] to adjust the pH. After an additional 10 min, the temperature of the mixture was recorded (68° C.) and the heating was stopped. The mixture was stirred on high speed for another hour, until it cooled. At that point, 0.31 g Glydant* and 0.30 g fragrance were added, and the sample was adjusted with water to 100 g formulation. Stirring continued for another hour. […]\nThis procedure was followed for all the polymers listed in Table 1, at the stated polymer concentration. In all cases, AMICAL™ 48 milled to a D50=2 microns was used (diiodomethyl-p-tolylsulfone content 92.5%). Detailed here is the example involving SOFTCAT™ SL 400 at 0.25% concentration.\nTo a 250 mL glass jar were added 24.82 g water and 0.2644 g SOFTCAT™ SL 400. The mixture was stirred vigorously for 1.5 h. Separately, in a 250 mL beaker were combined Standapol* EA-3 (33.57 g), Standapol* A (11.08 g), and LAA (16.13 g). The mixture was stirred vigorously using an overhead stirrer, and after 10 min, 1.0120 g milled DITS (AMICAL™ 48) was added, followed by 5.0 g water. The DITS-surfactant blend was stirred for 1.25 hours. After that, the DITS—surfactant blend was added with agitation to the polymer solution which had been heated to 58° C. in a hot water bath. 8.12 g of deionized water was added next, and stirring was continued in the hot water bath. After 10 min, 1 mL of a 10% aqueous citric acid solution was added to adjust the pH. After an additional 15 min, the temperature of the mixture was recorded (58° C.) and the heating was stopped. The mixture was stirred on high speed for another hour, until it cooled. At that point, 0.44 g Glydant* and 0.3 g fragrance were added, and the sample was adjusted with water to 100 g formulation. […]"}},
  "data": [
    {"smiles": "Cc1ccc(S(=O)(=O)C(I)I)cc1", "note": "[DITS, diiodomethyl-para-tolylsulfone]", "values": [
      {"measurement": "minimum inhibitory concentration", "setting": "fungi", "result": "less than 10 ppm"},
      {"measurement": "water solubility", "setting": "[1]", "result": "less than 10 ppm"},
      {"measurement": "DITS content after storage (HPLC)", "setting": "[2]; Example 4, no polymer control, 8 week at 40° C.", "result": 0.44, "unit": "%"},
      {"measurement": "DITS content at time zero (HPLC)", "setting": "[2]; Example 4, no polymer control, time zero", "result": 1.02, "unit": "%"},
      {"measurement": "decomposition", "setting": "[2]; control samples formulated without polymer, shampoo matrix, 8 weeks at 40° C.", "result": "~60", "unit": "%"},
      {"measurement": "% DITS left when added to surfactant blend", "setting": "[2]; generic shampoo matrix, 40° C. for 8 weeks, no polymer (control, Example 4)", "result": 43.2, "unit": "%"}
    ]}
  ]
}
